The values below come from patent publication US20240262848A1, “HETEROCYCLIC COMPOUNDS, COMPOSITIONS THEREOF, AND METHODS OF TREATMENT THEREWITH” (BeiGene, Ltd., priority 2022, published 2024).

Assay [1] deals with GST-tagged GDP-loaded KRAS G12D (amin acids 1-188) (Homo sapiens, UniProt P01116, G12D). In words: KRAS G12D probe displacement assay (TR-FRET). It is filed as binding. Particulars: Table 5; KRAS G12D 0.5 nM, biotinylated probe 2 4 nM. How it is done:
Plates are incubated at 24° C. for 1 hr.
(Time-resolved FRET reads energy transfer from a long-lived donor to a nearby acceptor.)

Assay [2] relates to pERK1/2(THR202/TYR204) level in AsPC-1 cell line. In words: KRAS G12D pERK assay in AsPC-1 cells (HTRF). It is filed as cell-based. Particulars: Homo sapiens, ASPC1, Table 5, 2 h compound treatment. How it is done:
AsPC-1 cell line was used in this study. Cells were maintained in RPMI-1640 supplemented with 10% fetal bovine serum (Thermo Fisher), 50 units/ml, penicillin and streptomycin (Thermo Fisher) and kept at 37° C. in a humidified atmosphere of 5% CO2 in air. Cells were reinstated from frozen stocks that were laid down within 30 passages from the original cells purchased. 30000 cells per well were seeded into a 96-well plate and incubated overnight. Cells were treated with a 10-point dilution series. The final compound concentration is from 0 to 10 μM. After 2 h compound treatment, cells were lysed, and the pERK1/2(THR202/TYR204) level in the cell lysates was detected by HTRF kit (Cisbio). In brief, a total of 16 μL of cell lysate from each well of a 96-well plate was transferred to a 384-well white assay plate. Lysate from each well was incubated with 2 μL of Eu3+-cryptate (donor) labeled anti-phospho-ERK1/2 and 2 μL of D2 (acceptor) labeled anti-phospho-ERK1/2 antibodies (Cisbio) overnight in dark at room temperature. When the donor and acceptor are in close proximity, excitation of the donor with laser triggers a Fluorescence Resonance Energy Transfer (FRET) towards the acceptor, which in turn fluoresces at 655 nm wavelength. FRET signals were measured using a PHERAstar FSX reader (BMG Labtech). IC50 determination was performed by fitting the curve of percent inhibition versus the log of the inhibitor concentration using Dotmatics.

Chain of GST-tagged GDP-loaded KRAS G12D (amin acids 1-188) (P01116 1-188 isoform P01116-2 G12D): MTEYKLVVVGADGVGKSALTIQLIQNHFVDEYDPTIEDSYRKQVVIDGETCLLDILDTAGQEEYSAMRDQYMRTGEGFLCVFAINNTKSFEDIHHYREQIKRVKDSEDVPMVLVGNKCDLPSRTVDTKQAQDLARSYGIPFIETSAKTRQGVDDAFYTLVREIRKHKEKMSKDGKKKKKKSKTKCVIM

For the compound `CNCCN1c2nc(OC[C@@]34CCCN3C[C@H](F)C4)nc3c(F)c(-c4cc(N)cc(Cl)c4C(F)(F)F)nc(c23)OCCC1C` (stereo partly drawn) [Example 20, 3-chloro-5-(4-fluoro-2-(((2R,7aS)-2-fluorotetrahydro-1H-pyrrolizin-7a(5H)-yl)methoxy)-10-methyl-11-(2-(methylamino)ethyl)-8,9,10,11-tetrahydro-7-oxa-1,3,6,11-tetraazacycloocta[de]naphthalen-5-yl)-4-(trifluoromethyl)aniline], the IC50 in assay [1] worked out at 0.43 nM; in assay [2], 1010 nM.
Consider `CN1c2nc(OC[C@@]34CCCN3C[C@H](F)C4)nc3c(F)c(-c4cc(N)cc(Cl)c4C(F)(F)F)nc(c23)OCC2CNCC21` (stereo partly drawn) [Example 27, 3-chloro-5-(4-fluoro-2-(((2R,7aS)-2-fluorotetrahydro-1H-pyrrolizin-7a(5H)-yl)methoxy)-12-methyl-8a, 9,10,11,11a, 12-hexahydro-8H-7-oxa-1,3,6,10,12-pentaazacyclopenta[5,6]cycloocta[1,2,3-de]naphthalen-5-yl)-4-(trifluoromethyl)aniline], for which the IC50 amounted to 0.95 nM in assay [1] and 836 nM in assay [2].
Taken in the same sequence, the figures for `CNCCN1c2nc(OC[C@@]34CCCN3C[C@H](F)C4)nc3c(F)c(-c4cc(N)cc(Cl)c4C(F)(F)F)nc(c23)OCC12CCC2` [Example 36, 3-chloro-5-(4′-fluoro-2′-(((2R,7aS)-2-fluorotetrahydro-1H-pyrrolizin-7a(5H)-yl)methoxy)-10′-(2-(methylamino)ethyl)-8′H, 10′H-7′-oxa-1′,3′,6′,10′-tetraazaspiro[cyclobutane-1,9′-cyclohepta[de]naphthalen]-1′(10a′), 2′0.3a′, 3 al′(6a′), 5′-pentaen-5′-yl)-4-(trifluoromethyl)aniline] were 1.1 nM and 2160 nM.
For the compound `CN(C)CCN1c2nc(OC[C@@]34CCCN3C[C@H](F)C4)nc3c(F)c(-c4cc(N)cc(Cl)c4C(F)(F)F)nc(c23)OCC12CCC2` [Example 37, 3-chloro-5-(10′-(2-(dimethylamino)ethyl)-4′-fluoro-2′-(((2R,7aS)-2-fluorotetrahydro-1H-pyrrolizin-7a(5H)-yl)methoxy)-8′H, 10′H-7′-oxa-1′,3′,6′,10′-tetraazaspiro[cyclobutane-1,9′-cyclohepta[de]naphthalen]-1′(10a′), 2′,3a′, 3 al′(6a′), 5′-pentaen-5′-yl)-4-(trifluoromethyl)aniline], the IC50 in assay [1] stood at 2.3 nM; in assay [2] it was 639 nM.
The corresponding values for `CNCC(C)N1c2nc(OC[C@@]34CCCN3C[C@H](F)C4)nc3c(F)c(-c4cc(N)cc(Cl)c4C(F)(F)F)nc(c23)OCC12CCC2` (stereo partly drawn) [Example 38, 3-chloro-5-(4′-fluoro-2′-(((2R,7aS)-2-fluorotetrahydro-1H-pyrrolizin-7a(5H)-yl)methoxy)-10′-(1-(methylamino)propan-2-yl)-8′H, 10′H-7′-oxa-1′,3′,6′,10′-tetraazaspiro[cyclobutane-1,9′-cyclohepta[de]naphthalen]-1′(10a′), 2′,3a′, 3 al′(6a′), 5′-pentaen-5′-yl)-4-(trifluoromethyl)aniline] are 0.38 nM and 102 nM.
Take `CNCC(C)N1CCCOc2nc(-c3cc(N)cc(Cl)c3C(F)(F)F)c(F)c3nc(OC[C@@]45CCCN4C[C@H](F)C5)nc1c23` (stereo partly drawn) [Example 39, 3-chloro-5-(4-fluoro-2-(((2R,7aS)-2-fluorotetrahydro-1H-pyrrolizin-7a(5H)-yl)methoxy)-11-(1-(methylamino)propan-2-yl)-8,9,10,11-tetrahydro-7-oxa-1,3,6,11-tetraazacycloocta[de]naphthalen-5-yl)-4-(trifluoromethyl)aniline]: the IC50 in assay [1] came out at 3.9 nM; in assay [2], 1780 nM.
Taken in the same sequence, the figures for `CC(CN(C)C)N1CCCOc2nc(-c3cc(N)cc(Cl)c3C(F)(F)F)c(F)c3nc(OC[C@@]45CCCN4C[C@H](F)C5)nc1c23` (stereo partly drawn) [Example 40, 3-chloro-5-(11-(1-(dimethylamino)propan-2-yl)-4-fluoro-2-(((2R,7aS)-2-fluorotetrahydro-1H-pyrrolizin-7a(5H)-yl)methoxy)-8,9,10,11-tetrahydro-7-oxa-1,3,6,11-tetraazacycloocta[de]naphthalen-5-yl)-4-(trifluoromethyl)aniline] were 7.6 nM and 2000 nM.
On to `CNCCN1c2nc(OC[C@@]34CCCN3C[C@H](F)C4)nc3c(F)c(-c4cc(N)cc(Cl)c4C(F)(F)F)nc(c23)OCCC12CC2` [Example 42, 3-chloro-5-(4-fluoro-2-(((2R,7aS)-2-fluorotetrahydro-1H-pyrrolizin-7a(5H)-yl)methoxy)-11-(2-(methylamino)ethyl)-8,9-dihydro-11H-7-oxa-1,3,6,11-tetraazaspiro[cycloocta[de]naphthalene-10,1′-cyclopropan]-1(11a), 2,3a, 4,6-pentaen-5-yl)-4-(trifluoromethyl)aniline], for which the IC50 in assay [1] amounted to 0.17 nM; in assay [2] it was 141 nM.
For `CN(C)CCN1c2nc(OC[C@@]34CCCN3C[C@H](F)C4)nc3c(F)c(-c4cc(N)cc(Cl)c4C(F)(F)F)nc(c23)OCCC12CC2` [Example 43, 3-chloro-5-(11-(2-(dimethylamino)ethyl)-4-fluoro-2-(((2R,7aS)-2-fluorotetrahydro-1H-pyrrolizin-7a(5H)-yl)methoxy)-8,9-dihydro-11H-7-oxa-1,3,6,11-tetraazaspiro[cycloocta[de]naphthalene-10,1′-cyclopropan]-1(11a), 2,3a, 4,6-pentaen-5-yl)-4-(trifluoromethyl)aniline], the concentration for half-maximal inhibition (IC50) turned out to be 0.73 nM in assay [1] and 92 nM in assay [2].
The corresponding values for `CN(C)CCN1c2nc(OC[C@@]34CCCN3C[C@H](F)C4)nc3c(F)c(-c4cc(N)cc(Cl)c4C(F)(F)F)nc(c23)OCCC12COC2` [Example 44, 3-chloro-5-(11-(2-(dimethylamino)ethyl)-4-fluoro-2-(((2R,7aS)-2-fluorotetrahydro-1H-pyrrolizin-7a(5H)-yl)methoxy)-8,9-dihydro-11H-7-oxa-1,3,6,11-tetraazaspiro[cycloocta[de]naphthalene-10,3′-oxetan]-1(11a), 2,3a, 4,6-pentaen-5-yl)-4-(trifluoromethyl)aniline] are 0.65 nM and 184 nM.
Regarding `CNCCN1c2nc(OC[C@@]34CCCN3C[C@H](F)C4)nc3c(F)c(-c4cc(N)cc(Cl)c4C(F)(F)F)nc(c23)O[C@H]2CCCC[C@@H]21` [Example 48, 3-chloro-5-((7aS,11aS)-4-fluoro-2-(((2R,7aS)-2-fluorotetrahydro-1H-pyrrolizin-7a(5H)-yl)methoxy)-12-(2-(methylamino)ethyl)-7a, 8,10,11,11a, 12-hexahydro-9H-7-oxa-1,3,6,12-tetraazapleiaden-5-yl)-4-(trifluoromethyl)aniline], the IC50 in assay [1] is 20 nM; in assay [2], 3380 nM.

For orientation: IC50 means the concentration that gives 50% inhibition. The low end stands for greater potency, the high end for weaker potency.
